# Numbered stars: 1 amine (or outer) side, 2 acyl side, 3 side chain; on linkers, the order of the positions; unused ones are H or OH. Bridge positions count the residues as written; N and C are the ends. Square brackets hold non-standard residues; d marks the D form. Peptide text beside a SMILES is read from it. I, II: the chains in the order shown. Actinocin(1to9) = Cc1c2oc3c(C)ccc(C(=O)[*:2])c3nc-2c(C(=O)[*:1])c(N)c1=O; NMeV = CN[C@H](C(=O)O)C(C)C; Sar = CNCC(=O)O
# Columns and labels:
# [1] = system: NUGC; experiment: Cytotoxicity against human NUGC cells; type: functional, cell-based
# [2] = Cytotoxicity against human HONE1 cells; type: functional, cell-based
Compound,IC50 [1],IC50 [2]
"Cc1c2oc3c(C)ccc(C(=O)N[C@@H]4C(=O)N[C@H](C(C)C)C(=O)N5CCC[C@H]5C(=O)N(C)CC(=O)N(C)[C@@H](C(C)C)C(=O)O[C@@H]4C)c3nc-2c(C(=O)N[C@@H]2C(=O)N[C@H](C(C)C)C(=O)N3CCC[C@H]3C(=O)N(C)CC(=O)N(C)[C@@H](C(C)C)C(=O)O[C@@H]2C)c(N)c1=O [DACTINOMYCIN] (I: T[dV]P[Sar][NMeV] / II: T[dV]P[Sar][NMeV]; ester I:1-I:C, II:1-II:C; linker I:N-II:N via Actinocin(1to9))",6.61 µg/mL,4.53 µg/mL
"CO[C@H](c1ccccc1)[C@H](O)[C@H]1CC=CC(=O)O1 [6R,7R,8R-8-METHOXYGONIODIOL]",168 µg/mL,240 µg/mL
CC(=O)O[C@H](c1ccccc1)[C@H](O)[C@H]1CC=CC(=O)O1,5.02 µg/mL,6.09 µg/mL
CC(=O)O[C@H]([C@H](O)c1ccccc1)[C@H]1CC=CC(=O)O1,4.12 µg/mL,5.69 µg/mL
"O=C1C=CC[C@H]([C@@H](O)[C@H](Cl)c2ccccc2)O1 [6R,7R,8R-8-CHLOROGONIODIOL]",31 µg/mL,4.87 µg/mL
O=C1C=CC[C@H]([C@@H]2O[C@H]2c2ccccc2)O1 [GONIOTHALAMIN EPOXIDE],32.1 µg/mL,36.3 µg/mL
